“And” between values parts separate entries of the source, which are not always exact repeats. Identical values can stand only once. Like-named read-outs stand apart in the source and are kept apart here.

The test system of one experiment is L1 wild-type C. elegans. Nature of the experiment: whole plant or invertebrate. To be noted: Caenorhabditis elegans, 15 h, read-out: C. elegans KCN Survival Assay LC50.
The subject of experiment [1] is anthelmintic/nematicide-resistant C. elegans mutant strains. Nature of the experiment: microbe, parasite or virus in culture. To be noted: for LC50: Caenorhabditis elegans; for dose response data: mev-1 (tr355). From the text:
In addition to the Caenorhabditis elegans wild-type N2 strain, this work included the following C. elegans strains: CB1003 (kynu-1(e1003) X); anthelmintic-resistant strains—CB3474 (ben-1(e1880) III), CB193 (unc-29(e193) I), HY496 (bre-1(ye4) IV), RB2119 (acr-23(ok2804) V), JD608 (avr-14(ad1302) I; avr-15(ad1051) V; glc-1 (pk54) V), NM1968 (slo-1(js379) V), RP2635 (mev-1(tr355) III); benzimidazole-resistant CRISPR strains—ECA882 (ben-1(ean64) III), ECA917 (ben-1(ean98) III), ECA1075 (ben-1(ean143) III), ECA1080 (ben-1(ean148) III). This work also featured several additional free-living nematode strains: C. briggsae strain AF16, P. pacificus strain PS312, and P. hermaphrodita strain B178. The four CRISPR-generated benzimidazole-resistant C. elegans mutants were generously provided by Prof. Erik Andersen (Johns Hopkins University); PS312 and B178 were generously provided by Prof. Peter Roy (University of Toronto); all other strains were obtained from the Caenorhabditis Genetics Center (CGC, University of Minnesota). All strains were cultured and propagated at 20 °C on NGM (nematode growth medium) agar plates seeded with E. coli OP50 (Stiernagle, 2006)[56].
Liquid development and viability assays were adapted from a previously established chemical screening protocol (Burns et al.)[24]. In brief, a saturated culture of E. coli HB101 was concentrated 2-fold in liquid NGM and 40 μL of this suspension was distributed to each well of a 96-well flat-bottom culture plate. 0.5 μL chemical solution (or DMSO alone) was added to each well (1% DMSO v/v) using either a multi-channel pipette or a pinning tool (V&P Scientific). L1 worms synchronized from an embryo preparation performed the day prior were diluted to a concentration of ~2 worms/μL in M9 buffer; 10 μL worm suspension was then added to each well. Culture plates were sealed with parafilm and placed in a plastic container lined with wet paper towels to prevent evaporation. Containers were then incubated for 6 days at 20 °C with shaking at 165 rpm. Following incubation, 300 μL M9 was added to each well to decrease the turbidity of the HB101-NGM suspension. Single images of each microplate well were then taken on a Nikon Ti Eclipse inverted microscope (Nikon NIS Elements AR). Images were processed using Python scripts to isolate worm-associated pixels from background. Scores of worm development and viability were determined as the sum of worm-associated pixels in each well. Development/viability scores for each well were divided by the development /viability scores for the corresponding DMSO controls, resulting in a relative viability value for each chemical. At least three biological replicates were performed for each dose-response experiment; relative viability values were averaged across replicates.
Supplementary Table 2. Sensitivity of anthelmintic/nematicide-resistant strains to Class A, B, and C
benzimidazole complex I inhibitors.
LC50s were estimated from fitted dose-
response curves; all dose response data are the mean of at least three biological replicates.
Supplementary Table 2. Davie et al.

Where [2] appears, read: read-out: C. elegans Development & Viability LC50, acr-23(ok2804).
Setting [3] is: read-out: C. elegans Development & Viability LC50, avr-14(ad1302), avr-15(ad1051), glc-1(pk54).
[4] abbreviates: read-out: C. elegans Development & Viability LC50, ben-1(e1880).
Where [5] appears, read: read-out: C. elegans Development & Viability LC50, bre-1(ye4).
[6] abbreviates: read-out: C. elegans Development & Viability LC50, mev-1(tr355).
Where [7] appears, read: read-out: C. elegans Development & Viability LC50, slo-1(js379).
[8] abbreviates: read-out: C. elegans Development & Viability LC50, unc-29(e193).
Setting [9] is: concentration step 1 of 13 (c108).
Setting [10] is: concentration step 4 of 13 (c111).

Regarding `Cc1ccccc1OCCCCn1cnc2ccccc21` [Compound 7732524], the LC50 – broadly, the concentration that kills 50% of the test population – amounted to 6.4 µM in the experiment on L1 wild-type C. elegans; 50.2 µM in experiment [1] (setting [2]); 46.5 µM in experiment [1] (setting [3]); 50 µM in experiment [1] (setting [4]); 41.2 µM in experiment [1] (setting [5]); 42.9 µM in experiment [1] (setting [6]). Further, the results for the LC50 in experiment [1] (setting [7]) and in experiment [1] (setting [8]) were 31.4 µM and 37.8 µM, respectively. Moreover, the dose response data in experiment [1] (setting [9]) is 0.998 and 1.000; in experiment [1] (concentration step 3 of 13 (c110)), 0.989 and 1.000; in experiment [1] (setting [10]) it was 1.000 and 0.845; in experiment [1] (concentration step 5 of 13 (c112)) it was 1.000 and 0.955; in experiment [1] (concentration step 6 of 13 (c113)), 1.000 and 0.835; in experiment [1] (concentration step 7 of 13 (c114)) it was 1.000. In addition, the dose response data in experiment [1] (concentration step 8 of 13 (c115)) was 1.000 and 0.746.

As to `CC(C)(C)c1ccc(CCOc2ncnc3ccccc23)cc1` [Fenazaquin, reference compound], in the experiment on L1 wild-type C. elegans, the LC50 was determined as 0.5 µM.

Regarding `COc1cc2c(cc1OC)C(c1ccc(-c3ccc(Cl)c(Cl)c3)o1)=NCC2` [NPD3577], the LC50 with L1 wild-type C. elegans worked out at 16 µM.

As to `COc1cc2c(cc1OC)C(/C=C/c1ccc(N(C)C)cc1)=NCC2` [NPD6303], in the experiment on L1 wild-type C. elegans, the LC50 is 32.2 µM.

In the case of `CC(C)Cc1ccc(C(C)c2nc3ccccc3n2C)cc1` (stereo not drawn) [NPD8790], the 50% lethal concentration (LC50) in the experiment with L1 wild-type C. elegans is 14.3 µM; in experiment [1] (setting [2]), more than 1000 µM; in experiment [1] (setting [3]), more than 1000 µM; in experiment [1] (setting [4]), more than 1000 µM; in experiment [1] (setting [5]) it was more than 1000 µM; in experiment [1] (setting [6]), more than 1000 µM. Besides, the 50% lethal concentration (LC50) in experiment [1] (setting [7]) is 177 µM; in experiment [1] (setting [8]) it was more than 1000 µM.

Consider `COc1cc2c(cc1OC)C(C(C)c1ccc(CC(C)C)cc1)=NCC2` (stereo not drawn) [NPD10504], for which the LC50 in the experiment with L1 wild-type C. elegans came to 15.6 µM.

On to `C=C(C)[C@H]1Cc2c(ccc3c2O[C@@H]2COc4cc(OC)c(OC)cc4[C@@H]2C3=O)O1` [Rotenone, reference compound], for which the median lethal concentration (LC50) was 0.8 µM in the experiment with L1 wild-type C. elegans; 2.1 µM in experiment [1] (setting [2]); 1.4 µM in experiment [1] (setting [3]); 3.4 µM in experiment [1] (setting [4]); 3.5 µM in experiment [1] (setting [5]); 3.2 µM in experiment [1] (setting [6]). Further, the LC50 was determined as 1 µM in experiment [1] (setting [7]) and 1.5 µM in experiment [1] (setting [8]).

For the compound `Cc1nc2ccccc2n1Cc1ccc(Cl)cc1` [STK697993], the LC50 with L1 wild-type C. elegans stood at 8.2 µM; in experiment [1] (setting [2]) it was 34.9 µM; in experiment [1] (setting [3]), 28.3 µM; in experiment [1] (setting [4]), 38.6 µM; in experiment [1] (setting [5]), 31.1 µM; in experiment [1] (setting [6]), 28.5 µM. The LC50 in experiment [1] (setting [7]) was found to be 16.1 µM; in experiment [1] (setting [8]), 22.9 µM. The dose response data in experiment [1] (setting [9]) was 0.989 and 1.000; in experiment [1] (setting [10]), 0.994 and 1.000.

On to `Cc1cc(O)c2c(c1)O[C@@]1(C)CC[C@H]3C(C)(C)CCC[C@]34CO[C@@H]2[C@H]41` [Siccanin], for which, in the experiment on L1 wild-type C. elegans, the LC50 is 6.3 µM.

With `COC(=O)Nc1nc2ccc(C(=O)c3ccccc3)cc2[nH]1` [mebendazole, reference compound], the “C. elegans L1 relative development & viability” value in experiment [1] (CB3474 G104D (ben-1), 1 µM, score 0-1 relative to DMSO, values >1 set to 1) came to 1.000; in experiment [1] (CB3474 G104D (ben-1), 2 µM, score 0-1 relative to DMSO, values >1 set to 1) it was 1.000; in experiment [1] (CB3474 G104D (ben-1), 3.9 µM, score 0-1 relative to DMSO, values >1 set to 1) it was 1.000; in experiment [1] (CB3474 G104D (ben-1), 15.6 µM, score 0-1 relative to DMSO, values >1 set to 1), 1.000; in experiment [1] (CB3474 G104D (ben-1), 31.3 µM, score 0-1 relative to DMSO, values >1 set to 1) it was 1.000; in experiment [1] (CB3474 G104D (ben-1), 62.5 µM, score 0-1 relative to DMSO, values >1 set to 1), 1.000. Besides, the “C. elegans L1 relative development & viability” value in experiment [1] (CB3474 G104D (ben-1), 125 µM, […]) is reported as 0.918; in experiment [1] (CB3474 G104D (ben-1), 250 µM, […]) it was 0.816; in experiment [1] (ECA917 F200Y (ben-1), 1 µM, score 0-1 relative to DMSO, values >1 set to 1), 1.000; in experiment [1] (ECA917 F200Y (ben-1), 2 µM, score 0-1 relative to DMSO, values >1 set to 1), 1.000; in experiment [1] (ECA917 F200Y (ben-1), 3.9 µM, score 0-1 relative to DMSO, values >1 set to 1), 1.000; in experiment [1] (ECA917 F200Y (ben-1), 15.6 µM, score 0-1 relative to DMSO, values >1 set to 1), 1.000. Moreover, the “C. elegans L1 relative development & viability” value in experiment [1] (ECA917 F200Y (ben-1), 31.3 µM, […]) is 0.958; in experiment [1] (ECA917 F200Y (ben-1), 62.5 µM, […]) it was 0.687; in experiment [1] (ECA917 F200Y (ben-1), 125 µM, […]), 0.515; in experiment [1] (ECA917 F200Y (ben-1), 250 µM, […]) it was 0.575; in experiment [1] (ECA1075 F167Y (ben-1), 1 µM, score 0-1 relative to DMSO, values >1 set to 1) it was 1.000; in experiment [1] (ECA1075 F167Y (ben-1), 2 µM, score 0-1 relative to DMSO, values >1 set to 1), 1.000. The “C. elegans L1 relative development & viability” value in experiment [1] (ECA1075 F167Y (ben-1), 3.9 µM, score 0-1 relative to DMSO, values >1 set to 1) was 1.000; in experiment [1] (ECA1075 F167Y (ben-1), 15.6 µM, score 0-1 relative to DMSO, values >1 set to 1) it was 1.000; in experiment [1] (ECA1075 F167Y (ben-1), 31.3 µM, […]), 0.936; in experiment [1] (ECA1075 F167Y (ben-1), 62.5 µM, […]), 0.436; in experiment [1] (ECA1075 F167Y (ben-1), 125 µM, […]) it was 0.502; in experiment [1] (ECA1075 F167Y (ben-1), 250 µM, […]), 0.324. In addition, the “C. elegans L1 relative development & viability” value in experiment [1] (ECA1080 E198A (ben-1), 1 µM, score 0-1 relative to DMSO, values >1 set to 1) was 1.000; in experiment [1] (ECA1080 E198A (ben-1), 2 µM, score 0-1 relative to DMSO, values >1 set to 1), 1.000; in experiment [1] (ECA1080 E198A (ben-1), 3.9 µM, score 0-1 relative to DMSO, values >1 set to 1), 1.000; in experiment [1] (ECA1080 E198A (ben-1), 15.6 µM, score 0-1 relative to DMSO, values >1 set to 1) it was 1.000; in experiment [1] (ECA1080 E198A (ben-1), 31.3 µM, score 0-1 relative to DMSO, values >1 set to 1), 1.000; in experiment [1] (ECA1080 E198A (ben-1), 62.5 µM, […]) it was 0.746. The “C. elegans L1 relative development & viability” value in experiment [1] (ECA1080 E198A (ben-1), 125 µM, […]) is 0.386; in experiment [1] (ECA1080 E198A (ben-1), 250 µM, […]) it was 0.470.

(Values after publication PMC11079024, “Identification of a family of species-selective complex I inhibitors as potential anthelmintics” (Nature Communications, 2024).)
